US10023557B2 (LifeSci Pharmaceuticals, Inc., priority 2015, dated 2018)

Tests used:
[1] = target: cellular kallikrein activity (Homo sapiens (Human), UniProt P03952); assay: In vitro cellular assay (contact assay): kallikrein activity in ellagic acid-activated human plasma, Z-FR-2-AMC substrate; format: biochemical; details: human plasma activated with ellagic acid, 37° C.
Method: The ability of the compounds disclosed herein to inhibit cellular kallikrein activity was quantified and the respective EC50 value was determined.
All dilutions were prepared in an assay buffer comprising 50 mM Tris-HCl pH 7.2, 150 mM NaCl, and 0.01% Triton X-100.
The ten solutions of the test compounds, prepared by serial dilution, were further diluted 50-fold in the assay buffer.
Human plasma is thawed on ice and centrifuged for 15 min at 4° C. to remove platelets. A 1 mM stock solution of ellagic acid is diluted to 8 μM and mixed with human plasma, after removing platelets, at a ratio of 1:0.8.
A 22.5 μL volume of the final mixture of human plasma and ellagic acid was added to a 96-well microwell plate and the plate was incubated for 15 min at 37° C.
The CINH inhibitor at various concentrations, prepared by serial dilutions as described above, were added to the inhibitor control wells. […] Each CINH concentration is tested in duplicates.
The test compounds at various concentrations, also prepared by serial dilutions as described above, are added to the test wells. […] Each test compound concentration was tested in duplicates.
In addition to the inhibitor control and test wells, the 96 well assay plate includes positive control wells which contained the mixture of human plasma and ellagic acid without C1NH inhibitor or test compounds, and background wells which contained neither the mixture of human plasma and ellagic acid nor the test compounds. The total volume of liquid in positive control and background wells was brought up to 35 μL, using the assay buffer.
The assay plate containing C1NH inhibitors and test compounds mixed with human plasma and ellagic acid and appropriate controls was incubated at 37° C. for 5 min. […] The reagents were mixed well by shaking the plate gently for 30 sec.
The enzyme reaction was quantified by immediate kinetic reading of the assay plate using excitation/emission wavelengths of 330 nm/440 nm respectively. Fluorescence intensity was recorded for 60 min, using a time interval of 43 sec.
The inhibition activity of the test compounds were evaluated using the EC50 values, calculated according to the dose-response curve of the test compounds, fitted using the “log(inhibitor)−response (variable slope)” equation in GraphPadPrism software (GraphPad Software, Inc.).
The percentage inhibition was calculated using the following equation:
[formula] where, Mean (BG) is the average value of the fluorescence intensity of the background wells and Mean (PC) is the average value of the fluorescence intensity of the positive control wells.
Table 4 provides the EC50 values of various compounds disclosed herein.

[2] = target: human plasma kallikrein (Homo sapiens (Human), UniProt P03952); assay: In vitro enzyme inhibition of human plasma kallikrein (PFR-AMC cleavage); format: biochemical; details: Pro-Phe-Arg-AMC substrate, 37° C., read-out: hPK IC50
In short: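 Human plasma kallikrein and compound, diluted in 50 mM Tris-HCl pH 7.5, 150 mM NaCl, 0.01% Triton X-100, preincubated 5 min at 37 °C before PFR-AMC was added.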

Sequence of cellular kallikrein activity (P03952 391-638): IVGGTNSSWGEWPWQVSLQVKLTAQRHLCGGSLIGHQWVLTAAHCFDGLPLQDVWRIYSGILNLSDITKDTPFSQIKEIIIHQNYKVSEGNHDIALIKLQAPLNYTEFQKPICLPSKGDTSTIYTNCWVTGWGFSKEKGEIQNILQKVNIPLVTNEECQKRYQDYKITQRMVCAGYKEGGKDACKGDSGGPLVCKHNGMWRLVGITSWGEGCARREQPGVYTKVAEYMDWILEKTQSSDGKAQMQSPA
Sequence of cellular kallikrein activity (P03952 20-390 partner): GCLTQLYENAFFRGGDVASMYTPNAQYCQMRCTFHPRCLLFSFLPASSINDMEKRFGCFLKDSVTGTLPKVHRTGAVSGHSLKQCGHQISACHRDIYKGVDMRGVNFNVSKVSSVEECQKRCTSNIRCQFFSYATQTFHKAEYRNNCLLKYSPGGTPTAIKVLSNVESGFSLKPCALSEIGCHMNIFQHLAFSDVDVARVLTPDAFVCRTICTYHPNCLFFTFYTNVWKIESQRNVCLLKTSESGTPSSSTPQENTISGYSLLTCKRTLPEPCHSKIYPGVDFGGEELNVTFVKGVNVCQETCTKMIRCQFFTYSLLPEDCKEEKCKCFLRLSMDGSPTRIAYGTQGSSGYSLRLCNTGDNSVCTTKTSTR
Sequence of human plasma kallikrein (P03952 391-638): as the sequence (P03952 391-638) above
Sequence of human plasma kallikrein (P03952 20-390 partner): as the sequence (P03952 20-390 partner) above

Row | Structure (SMILES) | EC50 [1] [nM] | IC50 [2] [nM]
1 | CC(C)(O)c1cc(Cc2cc(C(=O)NCc3cc4c(Cl)c[nH]c4cc3F)ccn2)cc2cc(Cl)cnc12 [Example 221, N-((3-chloro-6-fluoro-1H-indol-5-yl)methyl)-2-((3-chloro-8-(2-hydroxypropan-2-yl)quinolin-6-yl)methyl)isonicotinamide] | 100 to 1000 | < 100
2 | CC(C)(O)c1cc(Cc2cc(C(=O)NCc3ccc4[nH]cc(Cl)c4c3F)ccn2)cc2cc(Cl)cnc12 [Example 222, N-((3-chloro-4-fluoro-1H-indol-5-yl)methyl)-2-((3-chloro-8-(2-hydroxypropan-2-yl)quinolin-6-yl)methyl)isonicotinamide] | 100 to 1000 | < 100
3 | CC(C)(O)c1cc(Cc2cc(C(=O)NCc3n[nH]c4ccc(Cl)cc34)ccn2)cc2cc(Cl)cnc12 [Example 225, N-((5-chloro-1H-indazol-3-yl)methyl)-2-((3-chloro-8-(2-hydroxypropan-2-yl)quinolin-6-yl)methyl)isonicotinamide] | 100 to 1000 | < 100
4 | O=C(NCc1cc2c(Cl)c[nH]c2cc1F)c1ccnc(Cc2ccc3ncc(C(F)(F)F)cc3c2)c1 [Example 230, N-((3-chloro-6-fluoro-1H-indol-5-yl)methyl)-2-((3-(trifluoromethyl)quinolin-6-yl)methyl)isonicotinamide] | 100 to 1000 | < 100
5 | O=C(NCc1cnc2[nH]cc(Cl)c2c1)c1ccnc(Cc2ccc3ncc(C(F)(F)F)cc3c2)c1 [Example 231, N-((3-chloro-1H-pyrrolo[2,3-b]pyridin-5-yl)methyl)-2-((3-(trifluoromethyl)quinolin-6-yl)methyl)isonicotinamide] | 100 to 1000 | < 100
6 | O=C(NCc1ccc2[nH]cc(Cl)c2c1F)c1ccnc(Cc2ccc3ncc(C(F)(F)F)cc3c2)c1 [Example 234, N-((3-chloro-4-fluoro-1H-indol-5-yl)methyl)-2-((3-(trifluoromethyl)quinolin-6-yl)methyl)isonicotinamide] | 100 to 1000 | < 100
7 | Cc1nc2ccc(Cc3cc(C(=O)NCc4ccc(N)nc4C)ccn3)cc2cc1Cl [Example 239, N-((6-amino-2-methylpyridin-3-yl)methyl)-2-((3-chloro-2-methylquinolin-6-yl)methyl)isonicotinamide] | 100 to 1000 | < 100
8 | Cc1cc(N)nc(C)c1CNC(=O)c1ccnc(Cc2ccc3ncc(C4CC4)cc3c2)c1 [Example 243, N-((6-amino-2,4-dimethylpyridin-3-yl)methyl)-2-((3-cyclopropylquinolin-6-yl)methyl)isonicotinamide] | < 100 | < 100
9 | O=C(NCc1cc2c(Cl)c[nH]c2cc1F)c1ccnc(Cc2ccc3ncc(C4CC4)cc3c2)c1 [Example 245, N-((3-chloro-6-fluoro-1H-indol-5-yl)methyl)-2-((3-cyclopropylquinolin-6-yl)methyl)isonicotinamide] | 100 to 1000 | < 100
10 | O=C(NCc1cnc2[nH]cc(Cl)c2c1)c1ccnc(Cc2ccc3ncc(C4CC4)cc3c2)c1 [Example 246, N-((3-chloro-1H-pyrrolo[2,3-b]pyridin-5-yl)methyl)-2-((3-cyclopropylquinolin-6-yl)methyl)isonicotinamide] | 100 to 1000 | < 100
11 | Nc1nccc2cc(CNC(=O)c3ccnc(Cc4ccc5ncc(C6CC6)cc5c4)c3)ccc12 [Example 247, N-((1-aminoisoquinolin-6-yl)methyl)-2-((3-cyclopropylquinolin-6-yl)methyl)isonicotinamide] | < 100 | < 100
12 | O=C(NCc1ccc2[nH]cc(Cl)c2c1F)c1ccnc(Cc2ccc3ncc(C4CC4)cc3c2)c1 [Example 248, N-((3-chloro-4-fluoro-1H-indol-5-yl)methyl)-2-((3-cyclopropylquinolin-6-yl)methyl)isonicotinamide] | 100 to 1000 | < 100
13 | O=C(NCc1n[nH]c2ccc(Cl)cc12)c1ccnc(Cc2ccc3ncc(C4CC4)cc3c2)c1 [Example 249, N-((5-chloro-1H-indazol-3-yl)methyl)-2-((3-cyclopropylquinolin-6-yl)methyl)isonicotinamide] | 100 to 1000 | < 100

Next, values leading:

Row | EC50 [1] [nM] | IC50 [2] [nM] | Structure (SMILES)
14 | < 100 | < 100 | CC(C)(O)c1cc(Cc2cc(C(=O)NCc3cnc4[nH]cc(Cl)c4c3)ccn2)cc2cc(Cl)cnc12 [Example 223, N-((3-chloro-1H-pyrrolo[2,3-b]pyridin-5-yl)methyl)-2-((3-chloro-8-(2-hydroxypropan-2-yl)quinolin-6-yl)methyl)isonicotinamide]
15 | < 100 | < 100 | CC(C)(O)c1cc(Cc2cc(C(=O)NCc3ccc4c(N)nccc4c3)ccn2)cc2cc(Cl)cnc12 [Example 224, N-((1-aminoisoquinolin-6-yl)methyl)-2-((3-chloro-8-(2-hydroxypropan-2-yl)quinolin-6-yl)methyl)isonicotinamide]
16 | < 100 | < 100 | Cc1cc(N)nc(C)c1CNC(=O)c1ccnc(Cc2cnc3cc(F)c(Cl)cc3c2)c1 [Example 226, N-((6-amino-2,4-dimethylpyridin-3-yl)methyl)-2-((6-chloro-7-fluoroquinolin-3-yl)methyl)isonicotinamide]
17 | < 100 | < 100 | Cc1cc(N)nc(C)c1CNC(=O)c1ccnc(Cc2ccc3ncc(C(F)(F)F)cc3c2)c1 [Example 228, N-((6-amino-2,4-dimethylpyridin-3-yl)methyl)-2-((3-(trifluoromethyl)quinolin-6-yl)methyl)isonicotinamide]
18 | < 100 | < 100 | Cc1nc(N)ccc1CNC(=O)c1ccnc(Cc2ccc3ncc(C(F)(F)F)cc3c2)c1 [Example 229, N-((6-amino-2-methylpyridin-3-yl)methyl)-2-((3-(trifluoromethyl)quinolin-6-yl)methyl)isonicotinamide]
19 | < 100 | < 100 | Nc1nccc2cc(CNC(=O)c3ccnc(Cc4ccc5ncc(C(F)(F)F)cc5c4)c3)ccc12 [Example 232, N-((1-aminoisoquinolin-6-yl)methyl)-2-((3-(trifluoromethyl)quinolin-6-yl)methyl)isonicotinamide]
20 | < 100 | < 100 | Cc1cc(N)nc(C)c1CNC(=O)c1ccnc(Cc2cc(S(N)(=O)=O)c3ncc(Cl)cc3c2)c1 [Example 235, N-((6-amino-2,4-dimethylpyridin-3-yl)methyl)-2-((3-chloro-8-sulfamoylquinolin-6-yl)methyl)isonicotinamide]
21 | < 100 | < 100 | Cc1nc(N)ccc1CNC(=O)c1ccnc(Cc2cc(S(N)(=O)=O)c3ncc(Cl)cc3c2)c1 [Example 236]
22 | < 100 | < 100 | Cc1cc(N)nc(C)c1CNC(=O)c1ccnc(Cc2ccc3nc(C)c(Cl)cc3c2)c1 [Example 238, N-((6-amino-2,4-dimethylpyridin-3-yl)methyl)-2-((3-chloro-2-methylquinolin-6-yl)methyl)isonicotinamide]
23 | < 100 | < 100 | Cc1cc(N)nc(C)c1CNC(=O)c1ccnc(Cc2cc(CN)c3ncc(Cl)cc3c2)c1 [Example 241, N-((6-amino-2,4-dimethylpyridin-3-yl)methyl)-2-((8-(aminomethyl)-3-chloroquinolin-6-yl)methyl)isonicotinamide]
